Measured values as given in PMC7579906, “Discovery of a dual inhibitor of NQO1 and GSTP1 for treating glioblastoma” (Journal of Hematology & Oncology, 2020).

How the values were obtained:
U87MG cells = experiment: Cell proliferation (MTT) assay, parental U87MG; assay type: cell-based; conditions: Homo sapiens, U-87 MG, inhibition of cell proliferation/viability
Procedure: (§1) The human glioblastoma cell line U87MG was stably transfected with vector control, pLHCX-EGFRvIII, pGFP-NQO1 and pRS-GSTP1, which were supplemented with various antibiotics. For EGFRvIII, 150 μg/mL of hygromycin was used; for pGFP-NQO1 and pRS-GSTP1, 0.7 μg/mL of puromycin was employed. The cells were supplemented with 10% fetal bovine serum (Hyclone, USA), penicillin (100 U/ml) and streptomycin (100 U/ml) (ABAM Life Technologies, USA) in a humidified incubator with 5% CO2 at 37 °C.
(§2) In vitro assessment was implemented for cell proliferation using the 3-(4, 5- dimethylthiazol- 2-yl)-2,5-diphenyltetrazolium bromide (MTT) assay. After different treatments with specific time periods, 10 μL of MTT (5 mg/mL in PBS, Sigma, USA) was added to each well and the plates were incubated for 3 h at 37 °C. The resulting formazan product was dissolved with DMSO. The absorbance at a wavelength of 490 nm was recorded using a microplate reader (BioTek Instruments Inc., USA).

U87MG/EGFRvIII cells = experiment: Cell proliferation (MTT) assay, U87MG/EGFRvIII; assay type: cell-based, human; conditions: Homo sapiens, U-87 MG; inhibition of cell proliferation/viability; MNPC treated 72 h
Procedure: as §1, §2

Row | IC50 (U87MG/EGFRvIII cells) | Structure (SMILES) | IC50 (U87MG cells)
1 | 1.34 µM | Cc1ccc(-c2csc(NC(=O)c3cccc4ccccc34)n2)c(C)c1 [Compound 24] | 24.5 µM
2 | 19.4 µM | CC(=O)Oc1ccccc1C(=O)Nc1ncc([N+](=O)[O-])s1 [NTZ, nitazoxanide, reference compound] | 66.7 µM
3 | 22.4 µM | O=C(Nc1ncc([N+](=O)[O-])s1)c1ccccc1O [TIZ, tizoxanide, reference compound] | 82.9 µM

Second part, the compound before the results:

Row | Structure (SMILES) | IC50 (U87MG/EGFRvIII cells) | IC50 (U87MG cells)
4 | Cc1ccc(C)c(-c2csc(NC(=O)c3ccc(-c4ccccc4)cc3)n2)c1 [Compound 21] | 1.67 µM | 16.6 µM
5 | Cc1ccc(C(=O)Nc2nc(-c3ccccc3)c(C)s2)cc1 [Compound 22] | 2.42 µM | 11.2 µM
6 | CCc1cc(C(=O)Nc2nc(-c3ccc(C)c(C)c3)c(C)s2)cs1 [Compound 23] | 2.22 µM | 29.1 µM
